ChEMBL document CHEMBL3112505, “Discovery of novel indazole derivatives as dual angiotensin II antagonists and partial PPARγ agonists” (Bioorg Med Chem Lett, 2014)
Activity calls are given as the source filed them. The rule behind the calls is not given here.

Key:
[1] = target: T1, Peroxisome proliferator-activated receptor gamma (Mus musculus, UniProt P37238); experiment: Agonist activity at mouse PPARgamma expressed in CV-1 cells by reporter gene assay; format: cell-based
T1 sequence (P37238 whole entry): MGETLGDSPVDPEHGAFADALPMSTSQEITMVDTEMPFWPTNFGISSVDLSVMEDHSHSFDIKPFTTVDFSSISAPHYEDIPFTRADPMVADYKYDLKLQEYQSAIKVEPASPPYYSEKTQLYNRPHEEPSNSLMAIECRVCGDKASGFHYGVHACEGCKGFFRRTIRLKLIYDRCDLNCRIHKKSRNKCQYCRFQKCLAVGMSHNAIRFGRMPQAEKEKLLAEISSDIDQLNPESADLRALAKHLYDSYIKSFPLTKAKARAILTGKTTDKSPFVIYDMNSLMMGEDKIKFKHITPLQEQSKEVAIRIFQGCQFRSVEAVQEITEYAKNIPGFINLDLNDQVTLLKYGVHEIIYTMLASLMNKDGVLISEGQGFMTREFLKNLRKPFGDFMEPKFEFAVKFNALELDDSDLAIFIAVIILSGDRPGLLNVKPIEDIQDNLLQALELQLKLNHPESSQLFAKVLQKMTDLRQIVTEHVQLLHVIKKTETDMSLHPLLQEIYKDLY

[2] = target: T2, Peroxisome proliferator-activated receptor delta (Mus musculus, UniProt P35396); experiment: Agonist activity at mouse PPARdelta expressed in CV-1 cells by reporter gene assay; format: cell-based
T2 sequence (P35396 whole entry): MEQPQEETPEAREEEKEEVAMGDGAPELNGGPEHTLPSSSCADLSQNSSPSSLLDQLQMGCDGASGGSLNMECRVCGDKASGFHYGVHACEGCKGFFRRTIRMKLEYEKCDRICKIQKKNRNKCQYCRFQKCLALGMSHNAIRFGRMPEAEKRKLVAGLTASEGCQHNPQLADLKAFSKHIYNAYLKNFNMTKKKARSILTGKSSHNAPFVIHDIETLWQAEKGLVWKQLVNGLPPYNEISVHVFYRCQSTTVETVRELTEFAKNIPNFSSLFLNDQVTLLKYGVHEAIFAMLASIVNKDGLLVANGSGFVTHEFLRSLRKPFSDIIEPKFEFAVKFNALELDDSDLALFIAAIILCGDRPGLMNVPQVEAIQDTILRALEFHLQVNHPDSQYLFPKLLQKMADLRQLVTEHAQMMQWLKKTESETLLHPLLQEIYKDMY

[3] = target: T3, Peroxisome proliferator-activated receptor gamma (Mus musculus) (UniProt P37238); experiment: Agonist activity at mouse PPARgamma expressed in CV-1 cells by reporter gene assay relative to rosiglitazone; format: cell-based
T3 sequence (whole entry): T1 sequence (P37238 whole entry)

[4] = target: T4, Peroxisome proliferator-activated receptor alpha (Mus musculus, UniProt P23204); experiment: Agonist activity at mouse PPARalpha expressed in CV-1 cells by reporter gene assay; format: cell-based
T4 sequence (P23204 whole entry): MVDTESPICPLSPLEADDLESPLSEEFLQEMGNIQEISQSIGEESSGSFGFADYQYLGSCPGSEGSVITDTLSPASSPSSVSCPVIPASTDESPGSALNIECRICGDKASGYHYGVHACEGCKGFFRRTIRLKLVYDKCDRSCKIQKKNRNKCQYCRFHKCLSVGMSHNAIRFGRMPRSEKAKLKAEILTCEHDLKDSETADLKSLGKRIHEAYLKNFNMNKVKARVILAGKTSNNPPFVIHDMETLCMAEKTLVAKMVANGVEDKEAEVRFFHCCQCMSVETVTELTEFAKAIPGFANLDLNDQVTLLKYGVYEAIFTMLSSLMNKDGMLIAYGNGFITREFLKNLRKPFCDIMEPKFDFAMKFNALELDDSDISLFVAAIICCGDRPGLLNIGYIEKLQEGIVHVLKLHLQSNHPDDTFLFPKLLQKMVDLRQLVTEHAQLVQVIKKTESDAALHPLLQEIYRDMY

[5] = target: T5, Peroxisome proliferator-activated receptor gamma (Homo sapiens, UniProt P37231); experiment: Agonist activity at human PPARgamma expressed in CV-1 cells by reporter gene assay; format: cell-based
T5 sequence (P37231 whole entry): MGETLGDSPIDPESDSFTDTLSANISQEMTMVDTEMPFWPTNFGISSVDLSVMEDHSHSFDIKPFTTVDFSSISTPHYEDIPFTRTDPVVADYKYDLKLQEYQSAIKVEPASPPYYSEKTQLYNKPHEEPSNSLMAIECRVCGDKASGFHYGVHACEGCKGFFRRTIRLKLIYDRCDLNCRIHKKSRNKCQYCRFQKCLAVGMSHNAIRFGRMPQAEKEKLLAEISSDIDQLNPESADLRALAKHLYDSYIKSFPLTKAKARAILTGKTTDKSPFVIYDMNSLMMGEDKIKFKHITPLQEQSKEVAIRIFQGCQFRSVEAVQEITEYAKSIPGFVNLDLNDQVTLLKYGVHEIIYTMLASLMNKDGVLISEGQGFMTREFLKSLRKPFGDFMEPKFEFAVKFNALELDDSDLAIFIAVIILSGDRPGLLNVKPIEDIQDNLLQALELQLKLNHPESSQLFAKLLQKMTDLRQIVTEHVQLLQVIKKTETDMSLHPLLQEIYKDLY

[6] = target: T6, Type-1 angiotensin II receptor (Homo sapiens, UniProt P30556); experiment: Antagonist activity at human AT1 receptor expressed in CHO cells measured after overnight incubation by luciferase reporter gene assay; format: cell-based
T6 sequence (P30556 whole entry): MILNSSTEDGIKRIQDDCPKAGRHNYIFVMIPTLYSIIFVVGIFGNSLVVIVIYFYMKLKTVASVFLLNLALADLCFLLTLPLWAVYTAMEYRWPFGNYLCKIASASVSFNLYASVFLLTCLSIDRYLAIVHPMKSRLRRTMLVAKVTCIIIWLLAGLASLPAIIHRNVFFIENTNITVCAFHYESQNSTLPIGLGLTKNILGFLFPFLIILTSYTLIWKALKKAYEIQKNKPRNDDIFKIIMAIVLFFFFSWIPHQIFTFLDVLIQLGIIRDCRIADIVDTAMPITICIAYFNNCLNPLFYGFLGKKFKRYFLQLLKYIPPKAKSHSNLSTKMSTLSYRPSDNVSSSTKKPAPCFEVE

[7] = target: T7, Peroxisome proliferator-activated receptor gamma (Homo sapiens) (UniProt P37231); experiment: Partial agonist activity at human PPARgamma expressed in CV-1 cells by reporter gene assay relative to rosiglitazone; format: cell-based
T7 sequence (whole entry): T5 sequence (P37231 whole entry)

[8] = Volume of distribution at steady state in Zucker fa/fa rat 5.2 mg/kg, iv; format: ADME, organism-based; set-up: dose 5.2 mg/kg, route intravenous; details: in vivo, read-out: Vdss
[9] = Oral bioavailability in Zucker fa/fa rat at 30 mg/kg; format: ADME, organism-based; details: in vivo
Rattus norvegicus [10] = experiment: Antihypertensive activity in dosed SHR NCrl rat assessed as decrease in systolic blood pressure at 10 mg/kg, po administered daily for 12 days relative to vehicle-treated control control; format: functional, organism-based; set-up: dose 10 mg/kg; details: Artery
[11] = AUC in Zucker fa/fa rat at 5.2 mg/kg, iv; format: ADME, organism-based; set-up: dose 5.2 mg/kg, route intravenous; details: plasma
Rattus norvegicus [12] = experiment: Reduction in triglyceride level in Zucker fa/fa rat plasma at 75 mg/kg, po qd for 5 days relative to vehicle-treated control control; format: functional, organism-based; set-up: dose 75 mg/kg
[13] = Clearance in Zucker fa/fa rat at 5.2 mg/kg, iv; format: ADME, organism-based; set-up: dose 5.2 mg/kg, route intravenous; details: in vivo
[14] = target: T3, Peroxisome proliferator-activated receptor gamma (Mus musculus); experiment: Partial agonist activity at mouse PPARgamma expressed in CV-1 cells by reporter gene assay relative to rosiglitazone; format: cell-based
Rattus norvegicus [15] = experiment: Reduction in free fatty acid level in Zucker fa/fa rat plasma at 75 mg/kg, po qd for 5 days relative to vehicle-treated control control; format: functional, organism-based; set-up: dose 75 mg/kg
[16] = Half life in Zucker fa/fa rat at 5.2 mg/kg, iv; format: ADME, organism-based; set-up: dose 5.2 mg/kg, route intravenous; details: in vivo
Rattus norvegicus [17] = experiment: Reduction in insulin level in Zucker fa/fa rat plasma at 75 mg/kg, po qd for 5 days relative to vehicle-treated control control; format: functional, organism-based; set-up: dose 75 mg/kg
Rattus norvegicus [18] = experiment: Antihypertensive activity in dosed SHR NCrl rat assessed as decrease in diastolic blood pressure at 10 mg/kg, po administered daily for 12 days relative to baseline control; format: functional, organism-based; set-up: dose 10 mg/kg; details: Artery
Rattus norvegicus [19] = experiment: Antihypertensive activity in dosed SHR NCrl rat assessed as decrease in diastolic blood pressure at 10 mg/kg, po administered daily for 12 days relative to vehicle-treated control control; format: functional, organism-based; set-up: dose 10 mg/kg; details: Artery
[20] = target: T5, Peroxisome proliferator-activated receptor gamma; experiment: Partial agonist activity at human PPARgamma expressed in CV-1 cells by reporter gene assay; format: cell-based
[21] = target: T1, Peroxisome proliferator-activated receptor gamma; experiment: Partial agonist activity at mouse PPARgamma expressed in CV-1 cells by reporter gene assay; format: cell-based
Rattus norvegicus [22] = experiment: Antihypertensive activity in dosed SHR NCrl rat assessed as decrease in systolic blood pressure at 10 mg/kg, po administered daily for 12 days relative to baseline control; format: functional, organism-based; set-up: dose 10 mg/kg; details: Artery
[23] = AUC in Zucker fa/fa rat at 30 mg/kg, po; format: ADME, organism-based; set-up: dose 30 mg/kg, route oral; details: plasma
[24] = target: T8, Peroxisome proliferator-activated receptor alpha (Mus musculus) (UniProt P23204); experiment: Agonist activity at mouse PPARalpha expressed in CV-1 cells by reporter gene assay relative to rosiglitazone
T8 sequence (whole entry): T4 sequence (P23204 whole entry)

Row | EC50 [1] [µM] | EC50 [2] [µM] | max activation [3] [%] | EC50 [4] [µM] | EC50 [5] [µM] | IC50 [6] [µM] | Compound | other results
1 | 0.2 | > 10 | 17 | > 10 | 0.09 | > 10 | CCCc1c(Cc2ccc(-c3ccccc3C(=O)O)cc2)c2cc(C(=O)NC(CC)c3ccccc3)ccc2n1OC (stereo not drawn) | –
2 | – | > 10 | – | > 10 | – | 0.006 | CCCCn1c(-c2ccc3nn(CCC)c(Cc4ccc(-c5ccccc5-c5nn[nH]n5)cc4)c3c2)nc2ccccc21 | max activation [7]: 40%; Vd [8]: 7.8 L/kg; bioavailability [9]: 78%; Activity (Rattus norvegicus [10]): Active; AUC [11]: 8010 ng·h/mL; Activity (Rattus norvegicus [12]): Active; clearance [13]: 11 mL/min/kg; max activation [14]: 18%; Activity (Rattus norvegicus [15]): Active; half-life [16]: 14 h; Activity (Rattus norvegicus [17]): Active; Activity (Rattus norvegicus [18]): Active; Activity (Rattus norvegicus [19]): Active; EC50 [20]: 0.25 µM; EC50 [21]: 0.27 µM; Activity (Rattus norvegicus [22]): Active; AUC [23]: 36300 ng·h/mL
3 | 0.009 | – | 36 | 0.79 | 0.006 | > 10 | CCCc1[nH]c2cc(C(=O)NC(CC)c3ccccc3)ccc2c1Cc1ccc(-c2ccccc2C(=O)O)cc1 (stereo not drawn) | max activation [24]: 71%
4 | 0.38 | > 10 | 27 | > 10 | 0.28 | 0.085 | CCCc1nn2ccc(-c3nc4ccccc4n3CCC)cc2c1Cc1ccc(-c2ccccc2C(=O)O)cc1 | –
5 | – | > 10 | – | > 10 | – | 1 | CCCn1nc2ccc(C(=O)NC(CC)c3ccccc3)cc2c1Cc1ccc(-c2ccccc2C(=O)O)cc1 (stereo not drawn) | max activation [7]: 24%; max activation [14]: 19%; EC50 [20]: 0.13 µM; EC50 [21]: 0.25 µM
6 | – | – | 60 | – | – | – | CCCc1nn2ccc(-c3nc4ccccc4n3CCC)cc2c1Cc1ccc(-c2ccccc2-c2nn[nH]n2)cc1 | –
7 | – | – | – | – | – | > 10 | CCC(NC(=O)c1ccc2c(c1)c(C)c(C)n2Cc1ccc(-c2ccccc2C(=O)O)cc1)c1ccccc1 (stereo not drawn) | –
8 | 0.003 | – | 42 | 0.17 | 0.002 | > 10 | CCCc1c(Cc2ccc(-c3ccccc3C(=O)O)cc2)c2ccc(C(=O)NC(CC)c3ccccc3)cc2n1C (stereo not drawn) | max activation [24]: 90%
